# From PubChem BioAssay (NCI)
#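 Test compounds were applied to cells in 96-well plates for 48 hours at 5 doses. At the GI50, growth is halved. At the TGI there is no net growth.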
# Legend:
# Test in all cases: growth of human tumour cells (NCI), 48 h
# SK-MEL-2 melanoma = system: SK-MEL-2 melanoma
# SW-620 colon = system: SW-620 colon
# SK-MEL-28 melanoma = system: SK-MEL-28 melanoma
# MOLT-4 leukemia = system: MOLT-4 leukemia
# 786-0 renal = system: 786-0 renal
# HCT-116 colon = system: HCT-116 colon
# A549 NSCLC = system: A549 NSCLC
# CAKI-1 renal = system: CAKI-1 renal
# NCI-H522 lung = system: NCI-H522 lung
# DU-145 prostate = system: DU-145 prostate
Compound,TGI (SK-MEL-2 melanoma),TGI (SW-620 colon),TGI (SK-MEL-28 melanoma),TGI (MOLT-4 leukemia),TGI (786-0 renal),TGI (HCT-116 colon),TGI (A549 NSCLC),TGI (CAKI-1 renal),TGI (NCI-H522 lung),TGI (DU-145 prostate),GI50 (SK-MEL-2 melanoma),GI50 (SW-620 colon),GI50 (SK-MEL-28 melanoma),GI50 (MOLT-4 leukemia),GI50 (786-0 renal),GI50 (HCT-116 colon),GI50 (A549 NSCLC),GI50 (CAKI-1 renal),GI50 (NCI-H522 lung),GI50 (DU-145 prostate)
C=CCn1cc(C(=O)NC(=O)NCCCCCOC(=O)CCCCCCCCCCC(=O)OCCCCCNC(=O)NC(=O)c2cn(CC=C)c(=O)n(C)c2=O)c(=O)n(C)c1=O,> 100 µM,> 100 µM,> 100 µM,> 100 µM,> 100 µM,> 100 µM,> 100 µM,> 100 µM,> 100 µM,–,–,–,–,–,–,–,–,–,–,–
c1ccc(COC2(OCc3ccccc3)CC3OC2C2NN=NC32)cc1 (stereo unspecified),> 10 µM,33.6 µM,35.4 µM,37.9 µM,34.8 µM,–,> 100 µM,> 100 µM,–,–,–,–,–,–,–,–,–,–,–,–
O=[N+]([O-])c1ccc2nc3ccccc3cc2c1,27.8 µM,14.3 µM,10.7 µM,–,14 µM,10.5 µM,8.95 µM,0.0944 µM,9.79 µM,8.12 µM,–,–,–,–,–,–,–,–,–,–
COc1ccc2c(c1)/C(=C/c1cc(OC)c(OC)c(OC)c1)C(=O)N2C,7.41 µM,8.66 µM,22.5 µM,7.56 µM,23.7 µM,13.3 µM,> 67.1 µM,> 27.4 µM,6.39 µM,–,3.29 µM,1.59 µM,3.58 µM,1.89 µM,3.82 µM,2.56 µM,3.64 µM,2.41 µM,2.24 µM,–
COc1ccc(-c2csc(NC(=O)c3cc(O)c(O)c(O)c3)n2)cc1,–,> 33.3 µM,> 33.3 µM,> 33.3 µM,> 33.3 µM,> 33.3 µM,> 33.3 µM,> 33.3 µM,6.89 µM,> 33.3 µM,–,5.69 µM,13.2 µM,2.3 µM,11 µM,6.69 µM,10.3 µM,2.61 µM,1.32 µM,9.59 µM
CNCCCNCCCN1C(=O)c2ccc3c4c(ccc(c24)C1=O)C(=O)N(CCCNCc1ccccc1OC)C3=O,3.97 µM,5.12 µM,2.79 µM,3.55 µM,4.56 µM,1.21 µM,4.97 µM,–,2.83 µM,2.39 µM,1.75 µM,0.365 µM,1.01 µM,0.534 µM,1.27 µM,0.27 µM,0.577 µM,–,1.23 µM,1.05 µM
O=C(c1ccc(Cl)cc1)c1ccc(OCCSCCCCCCCCCCSCCOc2ccc(C(=O)c3ccc(Cl)cc3)cc2)cc1,> 100 µM,> 100 µM,> 100 µM,> 100 µM,> 100 µM,–,> 100 µM,> 100 µM,> 100 µM,–,–,–,–,–,–,–,–,–,–,–
C1=Nc2ccccc2C=Nc2ccccc2C=Nc2ccccc2C=Nc2ccccc21.[Cl-].[Pt+2],–,> 100 µM,64.4 µM,49.3 µM,97.1 µM,> 100 µM,> 100 µM,62.5 µM,34.8 µM,–,–,27.6 µM,14.8 µM,14.1 µM,32.2 µM,25.9 µM,28.7 µM,31.4 µM,15.8 µM,–
COC(=O)C1C(OCc2ccccc2)C2CCC1(OC)C=C2C (stereo unspecified),> 93.7 µM,> 100 µM,> 100 µM,80.6 µM,> 100 µM,> 100 µM,> 100 µM,> 100 µM,> 100 µM,–,–,–,–,–,–,–,–,–,–,–
CSc1ncnc2c1CCN2,> 100 µM,> 100 µM,> 100 µM,–,> 100 µM,> 100 µM,> 100 µM,–,–,–,> 100 µM,> 100 µM,> 100 µM,–,> 100 µM,> 100 µM,> 100 µM,–,> 100 µM,–
COc1ccc(/C=C/NC=O)cc1,> 100 µM,> 100 µM,> 100 µM,> 100 µM,> 100 µM,> 100 µM,> 100 µM,–,> 100 µM,> 100 µM,–,–,–,–,–,–,–,–,–,–
O=c1c2ccccc2nc(-c2cccc(Cl)c2)n1NCC1(O)OCC(O)C(O)C1O (stereo unspecified),> 100 µM,> 100 µM,> 100 µM,> 100 µM,> 100 µM,> 100 µM,> 100 µM,> 100 µM,> 100 µM,–,–,–,–,–,–,–,–,–,–,–
CC(=O)/C=C/c1ccc(C)cc1,> 100 µM,> 100 µM,> 100 µM,> 100 µM,> 100 µM,> 100 µM,> 100 µM,> 100 µM,> 100 µM,–,–,–,–,–,–,–,–,–,–,–
CC1(C)CC2(C)CC1CC2NC(=O)CCN1CCOCC1 (stereo unspecified),–,> 100 µM,> 100 µM,> 100 µM,> 100 µM,> 100 µM,> 100 µM,> 100 µM,> 100 µM,> 100 µM,–,–,–,–,–,–,–,–,–,–
COc1cc(/C=C(\OC(C)=O)c2ccc3c(c2)OCO3)cc(OC)c1OC,57.9 µM,> 100 µM,41.9 µM,43.4 µM,> 100 µM,38.9 µM,> 100 µM,> 100 µM,50.2 µM,–,–,–,–,–,–,–,–,–,–,–
Cc1ccc(Oc2ccc([N+](=O)[O-])cc2[N+](=O)[O-])c(C)c1,> 100 µM,> 100 µM,> 100 µM,79.4 µM,> 100 µM,> 100 µM,> 100 µM,> 100 µM,–,–,–,–,–,–,–,–,–,–,–,–
NC(CC1=CCC=CC1)C(=O)O (stereo unspecified),> 100 µM,> 100 µM,> 100 µM,> 100 µM,> 100 µM,> 100 µM,> 100 µM,> 100 µM,–,> 100 µM,–,–,–,–,–,–,–,–,–,–
O=C(NCc1ccncc1)C1COc2cc(-c3cc(=O)c4ccccc4o3)ccc2O1 (stereo unspecified),> 100 µM,> 100 µM,> 100 µM,> 100 µM,> 100 µM,> 100 µM,> 100 µM,–,> 100 µM,–,–,–,–,–,–,–,–,–,–,–
O=C(/C=C/c1ccccc1Cl)c1ccc(Cl)cc1Cl,–,3.36 µM,24.8 µM,26 µM,31.4 µM,20.5 µM,39.8 µM,28.4 µM,–,–,–,–,–,–,–,–,–,–,–,–
O=C(CC1C=CCS1(=O)=O)NCc1ccccc1 (stereo unspecified),–,> 100 µM,> 100 µM,> 100 µM,> 100 µM,> 100 µM,> 100 µM,> 100 µM,> 100 µM,> 100 µM,–,–,–,–,–,–,–,–,–,–
